Source: patent US7314744B2, “Hyperthermostable protease gene” (Takara Bio Inc., priority 1995, dated 2008)
Square brackets hold non-standard residues; d marks the D form. Peptide text beside a SMILES is read from it. * marks the point of attachment. Sta = CC(C)C[C@H](N)[C@@H](O)CC(=O)O; Isovaleryl = CC(C)CC(=O)*

How the values were obtained:
[1] = system: enzyme preparation TCES (protease TCES); assay: Effects of various reagents on enzyme preparation TCES; type: biochemical, Thermococcus celer; conditions: for effect of reagent on activity of TCES, in words: 37° C., 30 minutes, 1 mM reagent; for enzyme activity of TCES after treatment with reagent, compared with control (no reagent): treated at 37° C. for 30 minutes, reagent final concentration 1 mM, control 100%
Method: (§1) The enzyme activity of the enzyme preparation TC-3 obtained in the present invention can be measured using as a substrate Suc-Leu-Leu-Val-Tyr-MCA (SEQ ID NO:43) (manufactured by Peptide Laboratory). That is, the enzyme preparation to be detected for the enzyme activity is appropriately diluted, to 20 μl of the solution is added 80 μl of a 0.1M sodium phosphate buffer (pH 7.0) containing 62.5 μM Suc-Leu-Leu-Val-Tyr-MCA (SEQ ID NO:43), followed by incubating at 75° C. for 30 minutes. After the reaction is stopped by the addition of 20 μl of 30% acetic acid, the fluorescent intensity is measured at the excitation wavelength of 355 nm and the fluorescence wavelength of 460 nm to quantitate an amount of the generated 7-amino-4-methylcoumarin, and the resulting value is compared with that obtained when incubating without the addition of the enzyme preparation, to investigate the enzyme activity.
(§2) The effects of various reagents on the enzyme preparations TCES and NAPS-1 obtained by the present invention were investigated. That is, the above enzyme preparations were treated at 37° C. for 30 minutes in the presence of the various reagents at the final concentration of 1 mM, and an aliquot thereof was taken to determine the enzyme activity by the method described in the above (2) to compare with that (control) when no reagent was added.

[2] = system: enzyme preparation NAPS-1 (protease PFUS); assay: Effects of various reagents on enzyme preparation NAPS-1; type: biochemical, Pyrococcus furiosus; conditions: for effect of reagent on activity of NAPS-1, in words: 37° C., 30 minutes, 1 mM reagent; for enzyme activity of NAPS-1 after treatment with reagent, compared with control (no reagent): treated at 37° C. for 30 minutes, reagent final concentration 1 mM, control 100%
Method: (§3) In addition, the enzyme activity of the enzyme preparations NP-1, PT-1, NAPS-1 and NAPS-LS can be photometrically measured using Suc-Ala-Ala-Pro-Phe-p-NA (SEQ ID NO:44) (manufactured by Sigma) as a substrate. That is, an enzyme preparation to be detected for the enzyme activity was appropriately diluted, to 50 μl of the solution was added 50 μl of a 0.1M potassium phosphate buffer (pH 7.0) containing Suc-Ala-Ala-Pro-Phe-p-NA (SEQ ID NO:44) (Suc-Ala-Ala-Pro-Phe-p-NA(SEQ ID NO:44) solution), followed by incubating at 95° C. for 30 minutes. After the reaction was stopped by ice-cooling, the absorbance at 405 nm was measured to quantitate an amount of the generated p-nitroaniline, and the resulting value was compared with that when incubating without the addition of the enzyme preparation, to investigate the enzyme activity. Upon this, a 0.2 mM solution of Suc-Ala-Ala-Pro-Phe-p-NA (SEQ ID NO:44) was used for the enzyme preparations NP-1 and PT-1 and a 1 mM solution was used for the enzyme preparations NAPS-1 and NAPS-1S.
as §2

casein = assay: Casein degradation on casein-containing SDS-polyacrylamide gel; type: biochemical; conditions: gel with 0.05% casein, 95° C.
Suc-Leu-Leu-Val-Tyr-MCA = Suc-Leu-Leu-Val-Tyr-MCA hydrolyzing activity (fluorescence); type: biochemical; conditions: pH 7.0 and 75° C., 30 minutes
Method: as §1
(§4) The activity of the enzyme preparations obtained in the present invention on the synthetic peptide substrates is confirmed by a method for measuring the enzyme activity described in the above (2). […] In addition, the activity of the enzyme preparations obtained in the present invention on gelatin can be detected by confirming the degradation of gelatin by an enzyme on the SDS-polyacrylamide gel. […]

[3] = Thermostability of enzyme preparation (residual activity after heat-treatment); type: physicochemical; conditions: 80° C., 20 mM Tris-HCl pH 7.5, 3 hours
Method: The thermostability of the enzyme preparation TC-3 obtained by the present invention was investigated. That is, the enzyme preparation was incubated at 80° C. in 20 mM Tris-HCl, pH 7.5 for various periods of time, an appropriate amount thereof was taken to measure the enzyme activity by the method shown in the above (2), and the activity was compared with that when not heat-treated.
In addition, the thermostability of the enzyme preparation NP-1 obtained in the present invention was investigated. That is, the enzyme preparation was incubated at 95° C. in 20 mM Tris-HCl, pH 7.5 for various periods of time, an appropriate aliquot was taken to determine the enzyme activity by the method shown in the above (2), and the enzyme activity was compared with that when not heat-treated. […] This is considered to be because a protease produced as a precursor causes the self-catalytic activation during the heat-treatment.
In addition, the above enzyme preparation NP-1 activated by the heat-treatment was investigated for the thermostability. That is, the enzyme preparation NP-1 was activated by the heat-treatment at 95° C. for 30 minutes, incubated at 95° C. for various periods of time, and the activity was determined as described above to compare with that when not heat-treated. […]

gelatin = assay: Gelatin degradation on gelatin-containing SDS-polyacrylamide gel; type: biochemical; conditions: gel with 0.05% gelatin, pH 7.0, 95° C., 3 hours
From the text: The activity of the enzyme preparations obtained in the present invention on the synthetic peptide substrates is confirmed by a method for measuring the enzyme activity described in the above (2). That is, the enzyme preparation TC-3 obtained in the present invention has the Suc-Leu-Leu-Val-Tyr-MCA (SEQ ID NO:43) hydrlyzing activity, and the enzyme preparations NP-1, PT-1, NAPS-1 and NAPS-1A have the Suc-Ala-Ala-Pro-Phe-p-NA (SEQ ID NO:44) hydrlyzing activity, respectively. […] In addition, the activity of the enzyme preparations obtained in the present invention on gelatin can be detected by confirming the degradation of gelatin by an enzyme on the SDS-polyacrylamide gel. That is, the enzyme preparation to be detected for the enzyme activity was appropriately diluted, to 10 μl of the sample solution was added 2.5 μl of a sample buffer (50 mM Tris-HCl, pH 7.5, 5% SDS, 5% 2-mercaptoethanol, 0.005% Bromophenol Blue. 50% glycerol), followed by treatment at 100° C. for 5 minutes and electrophoresis using 0.1% SDS-10% polyacrylamide gel containing 0.05% gelatin. […] The presence of the protease activity was detected by the fact that gelatin is hydrolyzed by a protease into peptides which are diffused out of the gel and, consequently, the relevant portion of the gel was not stained with Coomassie Brilliant Blue.

Suc-Ala-Ala-Pro-Phe-p-NA = Suc-Ala-Ala-Pro-Phe-p-NA hydrolyzing activity (absorbance at 405 nm); type: biochemical; conditions: pH 7.0 and 95° C., 30 minutes
Method: as §3, with “Upon this, a 0.2 mM solution of Suc-Ala-Ala-Pro-Phe-p-NA (SEQ ID NO:44) was used for the enzyme preparations NP-1 and PT-1 and a 1 mM solution was used for the enzyme preparations NAPS-1 and NAPS-1S.” left out
as §4

Molecule | enzyme activity of TCES after treatment with reagent, compared with control (no reagent) [1] | effect of reagent on activity of NAPS-1, in words [2] | enzyme activity of NAPS-1 after treatment with reagent, compared with control (no reagent) [2] | further results
CC(C)C[C@H](NC(=O)[C@@H](NC(=O)N[C@@H](Cc1ccccc1)C(=O)O)[C@@H]1CCN=C(N)N1)C(=O)N[C@H](C=O)Cc1ccccc1 [Chymostatin] | 0% | remarkably decreased activity | 6.6% | effect of reagent on activity of TCES, in words [1]: remarkably decreased activity
O=C(O)CN(CCN(CC(=O)O)CC(=O)O)CC(=O)O [EDTA] | 103.5% | the decrease in the activity was observed | 36.1% | 
CC(=O)N[C@@H](CC(C)C)C(=O)N[C@@H](CC(C)C)C(=O)N[C@H](C=O)CCCNC(=N)N [Leupeptin] | 104.5% |  | 89.3% | 
CCN1C(=O)C=CC1=O [N-ethylmaleimide] | 82.6% |  | 102.6% | 
O=S(=O)(F)Cc1ccccc1 [PMSF, phenylmethanesulfonyl fluoride] | 8.1% | remarkably decreased activity | 0.1% | effect of reagent on activity of TCES, in words [1]: remarkably decreased activity
CC(C)CC(=O)N[C@H](C(=O)N[C@H](C(=O)N[C@@H](CC(C)C)[C@@H](O)CC(=O)N[C@@H](C)C(=O)N[C@@H](CC(C)C)[C@@H](O)CC(=O)O)C(C)C)C(C)C [Pepstatin] (Isovaleryl-VV[Sta]A[Sta]-OH) | 105.2% |  | 100.7% | 
TC-3: crude enzyme preparation of protease TCES (Thermococcus celer) obtained from Bacillus subtilis DB104/pSTC3 (protein) MKRLGAVVLALVLVGLLAGTALAAPVKPVVRNNAVQQKNYGLLTPGLFKKVQRMNWNQEVDTVIMFGSYGDRDRAVKVLRLMGAQVKYSYKIIPAVAVKIKARDLLLIAGMIDTGYFGNTRVSGIKFIQEDYKVQVDDATSVSQIGADTVWNSLGYDGSGVVVAIVDTGIDANHPDLKGKVIGWYDAVNGRSTPYDDQGHGTHVAGIVAGTGSVNSQYIGVAPGAKLVGVKVLGADGSGSVSTIIAGVDWVVQNKDKYGIRVINLSLGSSQSSDGTDSLSQAVNNAWDAGIVVCVAAGNSGPNTYTVGSPAAASKVITVGAVDSNDNIASFSSRGPTADGRLKPEVVAPGVDIIAPRASGTSMGTPINDYYTKASGTSMATPHVSGVGALILQAHPSWTPDKVKTALIETADIVAPKEIADIAYGAGRVNVYKAIKYDDYAKLTFTGSVADKGSATHTFDVSGATFVTATLYWDTGSSDIDLYLYDPNGNEVDYSYTAYYGFEKVGYYNPTAGTWTVKVVSYKGAANYQVDVVSDGSLSQSGGGNPNPNPNPNPTPTTDTQTFTGSVNDYWDTSDTFTMNVNSGATKITGDLTFDTSYNDLDLYLYDPNGNLVDRSTSSNSYEHVEYANPAPGTWTFLVYAYSTYGWADYQLKAVVYYG |  |  |  | casein hydrolyzing activity (gel) (casein): had the casein hydrolyzing activity; Suc-Leu-Leu-Val-Tyr-MCA hydrolyzing activity (Suc-Leu-Leu-Val-Tyr-MCA): had the Suc-Leu-Leu-Val-Tyr-MCA (SEQ ID NO:43) hydrolyzing activity; residual activity after heat-treatment [3]: not less than 90%; gelatin hydrolyzing activity (gelatin): had the gelatin hydrolyzing activity; Suc-Ala-Ala-Pro-Phe-p-NA hydrolyzing activity (Suc-Ala-Ala-Pro-Phe-p-NA): the activity to degrade the substrate was recognized
